Reference: ChEMBL document CHEMBL5338739, “Discovery of Dual Lysine Methyltransferase G9a and EZH2 Inhibitors with In Vivo Efficacy against Malignant Rhabdoid Tumor” (J Med Chem, 2023)
Activity calls are given as the source filed them. No cut-off for these calls is given here.

Key:
RD [1] = assay: Cytotoxicity against human RD cells assessed as reduction in cell viability incubated for 72 hrs by MTT assay; assay type: functional
SW982 [2] = assay: Cytotoxicity against human SW982 cells assessed as reduction in cell viability incubated for 72 hrs by MTT assay; assay type: functional
Mus musculus [3] = assay: Downregulation of H3K27me3 expression in tumor tissue of BALB/c nude mouse xenografted with human RD cells at 20 mg/kg, ip administered for 5 consecutive days followed by 2 rest days for 3 weeks by Western blotting analysis; assay type: functional, organism-based
Mus musculus [4] = assay: Downregulation of H3K9me2 expression in tumor tissue of BALB/c nude mouse xenografted with human RD cells at 20 mg/kg, ip administered for 5 consecutive days followed by 2 rest days for 3 weeks by Western blotting analysis; assay type: functional, organism-based
RD [5] = assay: Antitumor activity against human RD cells xenografted in BALB/c nude mouse assessed as tumor growth inhibition at 20 mg/kg, ip administered for 5 consecutive days followed by 2 rest days for 3 weeks; settings: 504 h, read-out: TGI
RD [6] = assay: Antiproliferative activity against human RD cells assessed as reduction in clone formation rate at 5 uM for 1 to 2 weeks with fresh medium replacement for every 2 to 3 days by crystal violet staining based microscopic analysis; assay type: functional, cell-based; settings: time 1-2 weeks
SW982 [7] = assay: Antiproliferative activity against human SW982 cells assessed as reduction in clone formation rate at 5 uM for 1 to 2 weeks with fresh medium replacement for every 2 to 3 days in presence of tazemetostat by crystal violet staining based microscopic analysis; assay type: functional, cell-based; settings: time 1-2 weeks
RD [8] = assay: Antiproliferative activity against human RD cells assessed as reduction in clone formation rate at 5 uM for 1 to 2 weeks with fresh medium replacement for every 2 to 3 days in presence of tazemetostat by crystal violet staining based microscopic analysis; assay type: functional, cell-based; settings: time 1-2 weeks
SW982 [9] = assay: Antiproliferative activity against human SW982 cells assessed as reduction in clone formation rate at 5 uM for 1 to 2 weeks with fresh medium replacement for every 2 to 3 days by crystal violet staining based microscopic analysis; assay type: functional, cell-based; settings: time 1-2 weeks
[10] = target: T1, Histone-lysine N-methyltransferase EHMT2 (Homo sapiens, UniProt Q96KQ7); assay: Inhibition of human recombinant EHMT2 G9a using SAM as substrate incubated for 1 hr by microplate luminescence based HMT assay
T1 sequence (Q96KQ7 whole entry): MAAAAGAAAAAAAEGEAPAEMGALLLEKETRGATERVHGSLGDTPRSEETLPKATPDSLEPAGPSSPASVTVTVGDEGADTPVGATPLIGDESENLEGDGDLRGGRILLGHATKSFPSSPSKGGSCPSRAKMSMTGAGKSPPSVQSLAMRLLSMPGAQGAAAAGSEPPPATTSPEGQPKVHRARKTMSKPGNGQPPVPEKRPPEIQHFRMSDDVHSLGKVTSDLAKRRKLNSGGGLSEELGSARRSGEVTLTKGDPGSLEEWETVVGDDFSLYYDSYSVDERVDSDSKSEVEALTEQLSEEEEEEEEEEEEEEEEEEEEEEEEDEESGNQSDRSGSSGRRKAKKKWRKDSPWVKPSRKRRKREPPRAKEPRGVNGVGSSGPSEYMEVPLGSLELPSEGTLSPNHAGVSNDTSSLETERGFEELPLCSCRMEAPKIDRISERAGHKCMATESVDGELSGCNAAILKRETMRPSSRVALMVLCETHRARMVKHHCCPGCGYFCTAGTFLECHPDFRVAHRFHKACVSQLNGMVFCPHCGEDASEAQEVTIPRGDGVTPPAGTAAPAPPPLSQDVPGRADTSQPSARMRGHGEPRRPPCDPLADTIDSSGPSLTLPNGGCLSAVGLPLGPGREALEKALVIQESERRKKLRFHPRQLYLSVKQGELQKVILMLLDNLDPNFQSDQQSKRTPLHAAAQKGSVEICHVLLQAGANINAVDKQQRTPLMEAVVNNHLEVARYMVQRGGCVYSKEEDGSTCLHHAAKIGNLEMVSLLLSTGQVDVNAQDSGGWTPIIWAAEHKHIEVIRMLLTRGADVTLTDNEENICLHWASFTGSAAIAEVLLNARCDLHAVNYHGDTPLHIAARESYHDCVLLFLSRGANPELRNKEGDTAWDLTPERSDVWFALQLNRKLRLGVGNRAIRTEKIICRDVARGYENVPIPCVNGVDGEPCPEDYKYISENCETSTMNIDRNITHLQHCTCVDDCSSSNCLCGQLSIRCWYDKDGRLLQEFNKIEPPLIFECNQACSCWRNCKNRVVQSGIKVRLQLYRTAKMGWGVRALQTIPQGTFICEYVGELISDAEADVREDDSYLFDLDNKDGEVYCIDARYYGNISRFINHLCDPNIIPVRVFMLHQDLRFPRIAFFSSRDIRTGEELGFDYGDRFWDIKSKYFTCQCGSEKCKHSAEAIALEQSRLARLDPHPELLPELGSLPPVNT

[11] = target: Histone-lysine N-methyltransferase EZH2 (Homo sapiens, UniProt Q15910); assay: Inhibition of human EZH2 using SAM as substrate incubated for 1 hr by microplate luminescence based HMT assay
Histone-lysine N-methyltransferase EZH2, sequence (Q15910 whole entry): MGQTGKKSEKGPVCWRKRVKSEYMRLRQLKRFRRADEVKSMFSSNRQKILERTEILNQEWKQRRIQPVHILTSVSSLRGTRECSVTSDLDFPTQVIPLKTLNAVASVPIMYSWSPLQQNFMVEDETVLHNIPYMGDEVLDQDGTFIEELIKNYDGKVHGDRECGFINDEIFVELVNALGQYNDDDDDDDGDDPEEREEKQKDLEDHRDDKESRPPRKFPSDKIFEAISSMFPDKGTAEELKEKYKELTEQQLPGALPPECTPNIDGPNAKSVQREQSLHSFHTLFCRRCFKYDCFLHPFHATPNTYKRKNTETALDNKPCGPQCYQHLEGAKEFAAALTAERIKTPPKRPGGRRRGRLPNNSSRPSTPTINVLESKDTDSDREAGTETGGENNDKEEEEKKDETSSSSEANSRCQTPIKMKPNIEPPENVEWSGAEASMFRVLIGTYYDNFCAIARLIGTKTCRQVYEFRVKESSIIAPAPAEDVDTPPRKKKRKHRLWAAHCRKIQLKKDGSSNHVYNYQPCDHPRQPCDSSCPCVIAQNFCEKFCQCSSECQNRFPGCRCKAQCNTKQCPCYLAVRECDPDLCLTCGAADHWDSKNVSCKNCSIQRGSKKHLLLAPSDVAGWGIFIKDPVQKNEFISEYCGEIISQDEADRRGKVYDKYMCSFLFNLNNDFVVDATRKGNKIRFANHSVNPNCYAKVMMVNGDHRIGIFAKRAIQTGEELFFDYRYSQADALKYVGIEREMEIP

| Compound | CC50 (RD [1]) [µM] | CC50 (SW982 [2]) [µM] | further results |
| --- | --- | --- | --- |
| COc1cc2nc(N3CCN(C)CC3)nc(NCc3c(C)cc(C)[nH]c3=O)c2cc1OC | 79.9 | 106 |  |
| COc1cc2c(NCc3c(C)cc(C)[nH]c3=O)nc(N3CCN(C)CC3)nc2cc1OCCCN1CCCC1 | 60.1 | 67.2 |  |
| COc1cc2c(NCc3c(C)cc(C)[nH]c3=O)nc(N3CCCC3)nc2cc1OCCCN1CCCC1 | 75.7 | 90.2 |  |
| COc1cc2nc(N(C)CCCN(C)C)nc(NCc3c(C)cc(C)[nH]c3=O)c2cc1OC | 76 | 101 |  |
| COc1cc2c(NCc3c(C)cc(C)[nH]c3=O)nc(N3CCOCC3)nc2cc1OCCCN1CCCC1 | 73.8 | 99.8 |  |
| CCN1CCN(c2nc(NCc3c(C)cc(C)[nH]c3=O)c3cc(OC)c(OCCCN4CCCC4)cc3n2)CC1 | 22.7 | 53.6 |  |
| COc1cc2c(NCc3c(C)cc(C)[nH]c3=O)nc(N(C)CCN(C)C)nc2cc1OCCCN1CCCC1 | 74.3 | 78.3 |  |
| CCN(CC)c1nc(NCc2c(C)cc(C)[nH]c2=O)c2cc(OC)c(OCCCN3CCCC3)cc2n1 | 82.5 | 87.7 |  |
| CCN(c1cc(-c2ccc(CN3CCOCC3)cc2)cc(C(=O)NCc2c(C)cc(C)[nH]c2=O)c1C)C1CCOCC1 [TAZEMETOSTAT] | 245 | 116 | Activity (Mus musculus [3]): Active; Activity (Mus musculus [4]): Active; inhibition in vivo at 20 mg/kg (RD [5]): 69.2% |
| COc1cc2c(NC3CCN(C(C)C)CC3)nc(C3CCCCC3)nc2cc1OCCCN1CCCC1 | 34.2 | 29.5 | Activity (RD [6]): Active; Activity (SW982 [7]): Active; Activity (RD [8]): Active; Activity (SW982 [9]): Active |
| COc1cc2nc(N(C)CCN(C)C)nc(NCc3c(C)cc(C)[nH]c3=O)c2cc1OC | 84.9 | 85.7 |  |
| COc1cc2c(NCc3c(C)cc(C)[nH]c3=O)nc(N3CCCCCC3)nc2cc1OCCCN1CCCC1 | 23.5 | 35.7 |  |
| COc1cc2nc(N3CCCN(C)CC3)nc(NCc3c(C)cc(C)[nH]c3=O)c2cc1OC | 68.5 | 99.8 | IC50 [10]: 0.015 µM; IC50 [11]: 0.0533 µM |
| COc1cc2c(NCc3c(C)cc(C)[nH]c3=O)nc(N3CCC(OC)CC3)nc2cc1OCCCN1CCCC1 | 40.1 | 61.6 |  |
| COc1cc2c(NCc3c(C)cc(C)[nH]c3=O)nc(N3CCCN(C)CC3)nc2cc1OCCCN1CCCC1 | 56.5 | 48.9 |  |
| COc1cc2c(NCc3c(C)cc(C)[nH]c3=O)nc(N3CCCCC3)nc2cc1OCCCN1CCCC1 | 41.3 | 27 |  |
| COc1cc2c(NCc3c(C)cc(C)[nH]c3=O)nc(N(C)C)nc2cc1OCCCN1CCCC1 | 74.4 | 85 |  |
| COc1cc2nc(N3CCOCC3)nc(NCc3c(C)cc(C)[nH]c3=O)c2cc1OC | 77.2 | 89.2 |  |
